17 compounds from patent publication US9120808B2 (NABRIVA THERAPEUTICS AG, priority 2009, dated 2015) can be followed below.

Read-outs that look alike come from different tables or passages of the source.

In one data set the target is TEM-1 β-lactamase (Escherichia coli, UniProt P62593). Description: Cell-free β-lactamase inhibition study (nitrocefin hydrolysis). Conditions: 10 min pre-incubation at 37° C., nitrocefin substrate. It counts as biochemical. The method, then: (§1) Cell-Free-β-Lactamase Inhibition Study
(§2) Assays are performed with β-lactamases expressed in the pET system (Novagen, San Diego, Calif.) without signal peptides. They contain an N-terminal hexa-Histidine tag that is used for purification on Ni-NTA (Qiagen, Hilden, Germany). The compounds are prepared as 50 mM stocks in DMSO and diluted into buffer P1 (50 mM phosphate, pH 7) to a final concentration of 10% DMSO. All further dilutions are done in P2 (P1 with 10% DMSO). Enzyme and compound dilutions are pre-incubated for 10 min at 37° C. and the reaction is started with the addition of pre-warmed (37° C.) nitrocefin at a final concentration of […]. […] The initial velocity is determined and IC50 values are calculated using non-linear regression and sigmoidal dose response analysis with the PRISM 4.0 software (Graphpad Software Inc., San Diego, Calif.).

A further data set deals with C. freundii 7023771. Description: In-vitro synergy test, MIC by broth/agar dilution. Format: cell-based. The method, then:
(§3) Stock solutions of the test compounds and control antibiotics are prepared in distilled water according to the NCCLS guidelines (NCCLS (National Commitee for Clinical Laboratory Standards). 12(3). 2000. M7-A4). […] All drug weights are corrected for salt forms and refer to the pure drug substance.
(§4) All tested strains and clinical isolates are either purchased from the American Type Culture Collection (ATCC), kindly supplied by A. Georgopoulos (Vienna General Hospital, Vienna, Austria), and I. Chopra (Leeds, UK), collected from the SENTRY study (F. J. Schmitz, Minden, Germany) or from the Sandoz culture collection.
(§5) All strain identities are confirmed by BBL Crystal™ Identification Systems (Beckton Dickinson, Cockeysville, Md., USA). Stock cultures are prepared from broth cultures grown at 35° C. for 18-22 h without agitation and subsequent addition of 5% DMSO (v/v, final concentration) as cryoprotectant and stored frozen in liquid nitrogen.
(§6) Bacterial susceptibility, expressed as MIC, is determined by microbroth dilution technique and agar dilution technique as recommended by the approved standard reference recommendations of the NCCLS.
(§7) The inoculum is prepared by the direct colony suspension method as described by NCCLS. For this purpose the bacteria are grown on blood agar plates at 35° C. for 24 h. Subsequently 3-5 single colonies are suspended in 5 ml liquid medium. The bacteria are then incubated for 5 h to reach the logarithmic growth phase and subsequently diluted with medium or NaCl (0.86%) to reach a final living cell count equivalent to 10^8 CFU/ml. Then the bacterial suspension is diluted 1:10 and 1 μl (10^4 CFU; final inoculoum 10^5 CFU/ml) is transferred to the test medium containing the antibacterial substances by a multipoint inoculator (Dynatech, Chantilly, Va., USA). The plates are then incubated at 35° C. for 24 h. The MIC is determined optically and defined as the minimum inhibitory concentration [μg/ml] of antibiotic at which no visible bacterial growth occurs.
(In agar dilution the substance is mixed into plates at graded concentrations.)

The subject of another data set is E. cloacae 83989. Description: In-vitro synergy test, MIC by broth/agar dilution. It counts as cell-based. The method, then:
as §3, §4, §5, §6, §7

For data set [1], the system named is K. pneumoniae ATCC 700603. Description: In-vitro synergy test, MIC by broth/agar dilution. Format: cell-based. The method, then: as §3, §4, §5, §6, §7
The nature of a further data set: Pharmacokinetics in mice. It counts as in vivo. Particulars: for AUC / Cmax: mouse, plasma. The method, then:
The values of the PK parameters were calculated by standard noncompartmental analysis, using Kinetica 4.2 (InnaPhase). Plasma concentration values below the limit of quantification were taken as 0. The maximum plasma concentration (Cmax) and the time to reach Cmax were determined from observed data.

For data set [2], the system named is TEM-1 producing E. coli B269 (clinical isolate). Format: in vivo. Conditions: s.c.; 0.5 mg/kg cefepime (0 and 3 h) + 20 mg/kg Example 49 (0, 1.5, 3, 4.5 h after infection). The procedure:
A sepsis model in female NMRI mice was employed using TEM-1 producing E. coli B269 (clinical isolate) as the infecting bacterial strain. In general, the final inoculum given in 0.3 ml per mouse intraperitoneally represented a 100% lethal concentration for systemic infections within 48 hours.
The subcutaneous treatment schedule for the antibiotic at various doses was simultaneous and 3 hours after infection.

The next data set has as its target SHV-1 β-lactamase (Klebsiella pneumoniae, UniProt P0AD64). Description: Cell-free β-lactamase inhibition study (nitrocefin hydrolysis). Format: biochemical. Conditions: 10 min pre-incubation at 37° C., nitrocefin substrate. The method, then:
as §1, §2

Setting [3] is: MIC of cefepime with 17 μM Example 49.
The mark [4] stands for this setting: MIC of ceftazidime with 68 μM Example 49.

TEM-1 β-lactamase, sequence (P62593 whole entry, looked up): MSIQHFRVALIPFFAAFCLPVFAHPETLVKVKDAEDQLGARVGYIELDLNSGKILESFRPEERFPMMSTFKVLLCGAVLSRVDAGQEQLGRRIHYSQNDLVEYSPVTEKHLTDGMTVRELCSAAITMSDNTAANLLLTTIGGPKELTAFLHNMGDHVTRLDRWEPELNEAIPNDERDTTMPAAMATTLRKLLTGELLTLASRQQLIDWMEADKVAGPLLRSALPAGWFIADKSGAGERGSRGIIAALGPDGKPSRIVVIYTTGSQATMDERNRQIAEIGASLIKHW
SHV-1 β-lactamase, sequence (P0AD64 whole entry, looked up): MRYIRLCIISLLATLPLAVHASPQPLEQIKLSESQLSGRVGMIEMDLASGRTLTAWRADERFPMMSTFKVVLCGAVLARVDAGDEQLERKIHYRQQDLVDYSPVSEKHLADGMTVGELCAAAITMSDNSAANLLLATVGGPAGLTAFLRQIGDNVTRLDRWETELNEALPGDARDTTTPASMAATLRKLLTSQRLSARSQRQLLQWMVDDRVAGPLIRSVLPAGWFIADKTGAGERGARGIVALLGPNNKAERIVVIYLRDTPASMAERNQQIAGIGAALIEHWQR

In the case of `CC1CC(=C2O[C@@H]3CC(=O)N3C2C(=O)O)C(=O)O1` (single isomer, unassigned) [Example 49], half-maximal inhibition against TEM-1 β-lactamase (IC50) was put at 1.8 nM. The “Cefepime MIC, +17 μM Example 49” value was 0.4 µg/mL in the data set with C. freundii 7023771 (setting [3]), 0.8 µg/mL in the data set on E. cloacae 83989 (setting [3]) and 0.2 µg/mL in data set [1] (setting [3]). For the same compound, the “Ceftazidime MIC, +68 μM Example 49” value in the data set with C. freundii 7023771 (setting [4]) was found to be 3.2 µg/mL; with E. cloacae 83989 (setting [4]), 12.8 µg/mL; in data set [1] (setting [4]), 0.2 µg/mL. The “Amoxicillin MIC, +68 μM Example 49” value in data set [1] (MIC of amoxicillin with 68 μM Example 49) is 3.2 µg/mL. Besides, the area under the curve (AUC) (in general, the area under the concentration-time curve, a measure of exposure) in “Pharmacokinetics in mice” (oral 25 mg/kg) was 1090 ng·h/mL; in the data set “Pharmacokinetics in mice” (sc, subcutaneous 10 mg/kg), 2090 ng·h/mL. Also, the Cmax in “Pharmacokinetics in mice” (oral 25 mg/kg (cremophor EL/ethanol/glucose in saline), read-out: peak plasma concentration (Cmax)) was 2220 ng/mL; in the data set “Pharmacokinetics in mice” (sc, subcutaneous 10 mg/kg (0.05 M NaPO4 buffer, pH 7.2), read-out: Cmax) it was 5600 ng/mL. Moreover, the Thalf in the data set “Pharmacokinetics in mice” (oral 25 mg/kg) amounted to 18.90 min; in the data set “Pharmacokinetics in mice” (subcutaneous 10 mg/kg) it was 12.27 min. Besides, the “time to reach Cmax” value in “Pharmacokinetics in mice” (oral 25 mg/kg) is 15 min; in “Pharmacokinetics in mice” (subcutaneous 10 mg/kg), 5 min. For the same compound, the “survival, combination of cefepime and Example 49” value in data set [2] is “survival of all animals”.

Consider `CO/N=C(\C(=O)N[C@@H]1C(=O)N2C(C(=O)[O-])=C(C[N+]3(C)CCCC3)CS[C@H]12)c1csc(N)n1` [Cefepime, reference compound], for which the “Cefepime MIC, alone” value (in the data set on C. freundii 7023771 (antibiotic alone); in data set [1] (antibiotic alone)) was 0.8 µg/mL in each case.

As for `COC(=O)C1(C/C=C/c2ccccc2)C(=CC=O)O[C@@H]2CC(=O)N21` (single isomer, unassigned) [Example 14], the half-maximal inhibitory concentration (IC50) (usually the concentration that gives 50% inhibition) on SHV-1 β-lactamase (SHV-1, read-out: IC50) was determined as 85100 nM; on TEM-1 β-lactamase, 19600 nM.

Turning to `CCCC(C(=O)O)=C1O[C@@H]2CC(=O)N2C1C(=O)OC` (stereo partly drawn) [Example 54, (5R)-3-(1-Carboxy-butylidene)-7-oxo-4-oxa-1-aza-bicyclo[3.2.0]heptane-2-carboxylic acid methyl ester], the IC50 worked out at 295 nM at SHV-1 β-lactamase (SHV-1, read-out: IC50) and 97 nM at TEM-1 β-lactamase.

On to `COC(=O)C1(C/C=C/c2ccccc2)C(=CC=O)O[C@@H]2CC(=O)N21` (single isomer, unassigned) [Example 15], for which the concentration for half-maximal inhibition (IC50) at SHV-1 β-lactamase (SHV-1, read-out: IC50) is 4430 nM; against TEM-1 β-lactamase it was 4270 nM.

For the compound `COC(=O)C1(C/C=C/c2ccccc2)C(=CC(=O)O)O[C@@H]2CC(=O)N21` (single isomer, unassigned) [Example 36], the IC50 worked out at 642 nM at SHV-1 β-lactamase (SHV-1, read-out: IC50) and 408 nM against TEM-1 β-lactamase.

With `CC(C)(O/N=C(\C(=O)N[C@@H]1C(=O)N2C(C(=O)[O-])=C(C[n+]3ccccc3)CS[C@H]12)c1csc(N)n1)C(=O)O` [Ceftazidime, reference compound], the “Ceftazidime MIC, alone” value (with C. freundii 7023771 (antibiotic alone); in the data set with E. cloacae 83989 (antibiotic alone); in data set [1] (antibiotic alone)) was above 25.6 µg/mL each time.

`O=C(OCc1ccccc1)C1C(=C(CO)C/C=C/c2ccccc2)O[C@@H]2CC(=O)N12` (stereo partly drawn) [Example 39, (5R)-3-(1-Hydroxymethyl-4-phenyl-but-3-enylidene)-7-oxo-4-oxa-1-aza-bicyclo[3.2.0]heptane-2-carboxylic acid benzyl ester]: the half-inhibitory concentration (IC50) at SHV-1 β-lactamase (SHV-1, read-out: IC50) worked out at 5610 nM; on TEM-1 β-lactamase, 4120 nM.

As to `O=C(OCc1ccccc1)C1C(=C2COC(CI)C2)O[C@@H]2CC(=O)N12` (stereo partly drawn) [Example 59, (5R)-3-[5-Iodomethyl-dihydro-furan-3-ylidene]-7-oxo-4-oxa-1-aza-bicyclo[3.2.0]heptane-2-carboxylic acid benzyl ester], the half-maximal inhibitory concentration (IC50) stood at 3600 nM at SHV-1 β-lactamase (SHV-1, read-out: IC50) and 4390 nM on TEM-1 β-lactamase.

For the compound `C=CCC(C(=O)O)=C1O[C@@H]2CC(=O)N2C1C(=O)OCc1ccccc1` (stereo partly drawn) [Example 24, (5R)-3-(1-Carboxy-but-3-enylidene)-7-oxo-4-oxa-1-aza-bicyclo[3.2.0]heptane-2-carboxylic acid benzyl ester], the concentration for half-maximal inhibition (IC50) was found to be 62.2 nM at SHV-1 β-lactamase (SHV-1, read-out: IC50) and 30.6 nM against TEM-1 β-lactamase.

`C=CCC(C=O)=C1O[C@@H]2CC(=O)N2C1C(=O)OC` (stereo partly drawn) [Example 16, (5R)-3-[1-Formyl-but-3-enylidene]-7-oxo-4-oxa-1-aza-bicyclo[3.2.0]heptane-2-carboxylic acid methyl ester]: the half-inhibitory concentration (IC50) on SHV-1 β-lactamase (SHV-1, read-out: IC50) worked out at 80.5 nM; at TEM-1 β-lactamase, 65.2 nM.

As to `CC1(C)S[C@@H]2[C@H](NC(=O)[C@H](N)c3ccc(O)cc3)C(=O)N2[C@H]1C(=O)O` [Amoxicillin, reference compound], the “Amoxicillin MIC, alone” value in data set [1] (antibiotic alone) was above 25.6 µg/mL.

As to `CCCC(C(=O)O)=C1O[C@@H]2CC(=O)N2C1C(=O)O` (stereo partly drawn) [Example 51, (5R)-3-(1-Carboxy-butylidene)-7-oxo-4-oxa-1-aza-bicyclo[3.2.0]heptane-2-carboxylic acid], the IC50 at SHV-1 β-lactamase (SHV-1, read-out: IC50) came out at 436 nM; at TEM-1 β-lactamase, 254 nM.

As for `O=C(O)C=C1O[C@@H]2CC(=O)N2C1(C/C=C/c1ccccc1)C(=O)OCc1ccccc1` (single isomer, unassigned) [Example 28], the IC50 turned out to be 9320 nM at SHV-1 β-lactamase (SHV-1, read-out: IC50) and 45700 nM at TEM-1 β-lactamase.

As to `O=CC(CC=CCO)=C1O[C@@H]2CC(=O)N2C1C(=O)OCc1ccccc1` (stereo partly drawn) [Example 7, (5R)-3-[1-Formyl-5-hydroxy-pent-3-enylidene]-7-oxo-4-oxa-1-aza-bicyclo[3.2.0]heptane-2-carboxylic acid benzyl ester], the 50% inhibitory concentration (IC50) was 217 nM on SHV-1 β-lactamase (IC50, SHV-1) and 78.4 nM against TEM-1 β-lactamase.

As to `COC(=O)C1C(=C(C/C=C/c2ccccc2)C(=O)O)O[C@@H]2CC(=O)N12` (stereo partly drawn) [Example 34, (5R)-3-(1-Carboxy-4-phenyl-but-3-enylidene)-7-oxo-4-oxa-1-aza-bicyclo[3.2.0]heptane-2-carboxylic acid methyl ester], the 50% inhibitory concentration (IC50) at SHV-1 β-lactamase (SHV-1, read-out: IC50) was 50.3 nM; against TEM-1 β-lactamase, 21.7 nM.

`O=C(O)C(C/C=C/c1ccccc1)=C1O[C@@H]2CC(=O)N2C1C(=O)OCc1ccccc1` (stereo partly drawn) [Example 26, (5R)-3-[1-Carboxy-4-phenyl-but-3-enylidene]-7-oxo-4-oxa-1-aza-bicyclo[3.2.0]heptane-2-carboxylic acid benzyl ester]: the IC50 was determined as 36.3 nM on SHV-1 β-lactamase (SHV-1, read-out: IC50) and 9.2 nM against TEM-1 β-lactamase.
